In patent US7795235B2, “Semi-soft c-class immunostimulatory oligonucleotides” (Coley Pharmaceutical GmbH, priority 2004, dated 2010):
Oligonucleotides are written 5' to 3', each unit as a sugar letter and its base; * is a phosphorothioate linkage, no mark a phosphodiester; rarer units and linkages stand in square brackets, end groups in braces. Plain capitals give the bases only. d = 2'-deoxy (DNA)

Key:
BALB/c mice [1] = assay: Antigen-induced IgE and IgG2a production in the mouse; type: in vivo; settings: i.p. 1-1000 μg/kg, serum study day 18, FIG. 19
Protocol: Methods: Mice (male BALB/c) were sensitized on study days 0 and 7 with antigen (ovalbumin, 10 μg, i.p.) and aluminum hydroxide adjuvant Pierce Alum, i.p.). Mice received SEQ ID NO:2 or SEQ ID NO:7 on study days −2, 0, 5 and 7 (i.e. two days before each sensitization and on the day of sensitization). Mice were bled by cardiac puncture on study day 18. Serum was collected by centrifugation and assayed by ELISA for ovalbumin-specific IgE and IgG2a.

guinea pigs [2] = assay: Guinea pig AHR protocol (airway resistance and lung compliance); type: in vivo; settings: guinea pigs, 10, 30, 100 or 300 μl/kg, i.t.
Protocol: Male guinea pigs were sensitized on study days 0 and 4 with antigen (ovalbumin, 0.5 ml, 1% OVA i.p./s.c.) with aluminum hydroxide adjuvant. Guinea pigs were antigen challenged by exposure to inhaled ovalbumin aerosol, twice each week for two consecutive weeks. The first challenge was on study day 13. CpG ODN or vehicle (saline, 20 μl) were administered intranasally once each week, two days before the first antigen challenge of the week. Airways hyperreactivity was assessed 24 hours after the last antigen challenge by measuring bronchoconstriction (increase in airway resistance) to intravenous methacholine. For each animal, a dose-response curve to methacholine was obtained, and airway reactivity was quantified as the area under the curve.
Method: Guinea pigs were sensitized as described in Example 10. The first challenge was on study day 13. Guinea pigs were given intranasally either carrier (saline), OVA alone, of concentrations of SEQ ID NO:7 of 10 μl/kg, 30 μl/kg, 100 μl/kg, or 300 μl/kg, i.t.
Method: Guinea pigs were sensitized as described in Example 10. The first challenge was on study day 13. Guinea pigs were given intranasally either carrier (saline), OVA alone, of concentrations of SEQ ID NO:2 of 10 μl/kg, 30 μl/kg, 100 μl/kg, or 300 μl/kg, i.t.

mouse splenocytes = assay: Cytokine secretion from mouse splenocytes by SEQ ID NO: 2 and fragments; type: cell-based; settings: 0.01-10 μg/ml, 36 hours, FIGS. 43-45
Protocol: Spleens were removed from 6 mice (male, BALB/c). The splenocytes from each spleen were separated by pushing gently through a cell sieve (70 μm pore size), and were then pooled. Splenocytes were added to wells of culture plates. 1×10^7 cells in a volume of 900 μl medium were added to each well. Medium was RPMI 1640 containing 10% fetal bovine serum. 100 μl aliquots of CpG ODN solutions in medium were added to each well to give final concentrations in the wells of 0.01-10 μg/ml. After incubation for 36 hours (37 C, 5% CO2 incubator), culture supernatants were collected and assayed for cytokine concentrations using either the Luminex multiplex assay (IFNγ, IP-10, IL-10, IL-6, TNFα) or ELISA (IFNα).
The aim of this study was to investigate the biological activity of selected fragments (putative metabolites) of SEQ ID NO: 2. Activity was determined by measuring the ability of each fragment to induce secretion of TLR9-associated cytokines from mouse splenocytes […].
Stimulation of cytokine secretion by fragments of SEQ ID NO.: 2 is shown in the attached FIGS. 43-45. The oligonucleotides examined are depicted in the Figures by SEQ ID NO and include SEQ ID NO: 15-23. The concentration of oligonucleotide used to produce a particular data point is depicted along the X-axis (μg/ml).

human TLR9 = molecular target: T1, human TLR9 (Homo sapiens, UniProt Q9NR96); assay: Stimulation of TLR9-transfected cells in vitro (luciferase readout); type: cell-based; settings: quotient between highest value of all concentrations tested and medium control
T1 construct: expressed in transfected cells; host or cells: HEK 293
T1 sequence (Q9NR96 26-1032): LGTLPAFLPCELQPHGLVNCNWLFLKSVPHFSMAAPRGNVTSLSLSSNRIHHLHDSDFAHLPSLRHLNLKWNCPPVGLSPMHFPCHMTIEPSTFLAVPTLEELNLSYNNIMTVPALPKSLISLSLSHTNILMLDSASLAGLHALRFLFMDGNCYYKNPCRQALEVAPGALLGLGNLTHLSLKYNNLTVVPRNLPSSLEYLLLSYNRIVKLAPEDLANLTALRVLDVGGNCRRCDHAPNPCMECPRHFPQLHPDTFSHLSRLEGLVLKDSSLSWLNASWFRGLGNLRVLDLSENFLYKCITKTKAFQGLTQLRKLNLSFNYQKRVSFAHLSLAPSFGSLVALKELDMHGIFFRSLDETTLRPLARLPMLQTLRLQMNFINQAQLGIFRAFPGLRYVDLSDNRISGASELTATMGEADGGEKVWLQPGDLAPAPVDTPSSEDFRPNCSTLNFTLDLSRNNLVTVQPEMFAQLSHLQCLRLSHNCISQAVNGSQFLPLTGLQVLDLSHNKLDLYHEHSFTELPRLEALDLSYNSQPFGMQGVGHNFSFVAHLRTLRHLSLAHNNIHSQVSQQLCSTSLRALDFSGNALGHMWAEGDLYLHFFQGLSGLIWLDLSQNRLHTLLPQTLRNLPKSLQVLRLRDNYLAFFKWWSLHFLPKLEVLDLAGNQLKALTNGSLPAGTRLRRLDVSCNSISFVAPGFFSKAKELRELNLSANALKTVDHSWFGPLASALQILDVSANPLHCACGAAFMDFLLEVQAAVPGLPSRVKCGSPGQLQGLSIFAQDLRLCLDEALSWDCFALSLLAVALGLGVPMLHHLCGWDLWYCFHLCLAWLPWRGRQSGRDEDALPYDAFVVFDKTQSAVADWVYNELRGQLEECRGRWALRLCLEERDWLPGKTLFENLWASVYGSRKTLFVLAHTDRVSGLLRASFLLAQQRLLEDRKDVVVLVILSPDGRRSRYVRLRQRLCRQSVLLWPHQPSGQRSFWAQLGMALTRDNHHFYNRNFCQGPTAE
Protocol: Methods: HEK 293 cells transfected with human TLR9 were incubated with SEQ ID NO:1, SEQ ID NO:2, SEQ ID NO:3, SEQ ID NO:4, SEQ ID NO:5, or SEQ ID NO:6 for 16 hours. The signal was determined by a luciferase readout.
The EC50 was calculated using Sigma Plot (SigmaPlot 2002 for Windows version 8.0). The maximal stimulation index (max SI) was calculated as the quotient between the highest value of all concentrations tested for any ODN and the medium control.

BALB/c mice [3] = type: in vivo; settings: mouse
guinea pigs [4] = assay: Antigen-induced increase in nasal resistance in guinea pigs; type: in vivo, guinea pig; settings: 0.03-1 mg/kg intranasal, over 40 minutes after challenge, FIG. 2
Protocol: Guinea pigs (male, Hartley) were sensitized with antigen (ovalbumin, 5 mg both intraperitoneal and subcutaneous) on study day 0. A boost sensitization (5 mg, intraperitoneal) was given on study day 4. Guinea pigs were antigen challenged by exposure to intranasally-administered antigen twice each week for two consecutive weeks. The first challenge was on study day 14. SEQ ID NO:7 (lot number AQE-03J-001-M, 0.03-1 mg/kg in […] saline) was administered intranasally once each week, two days before the first antigen challenge of the week. With the exception of the final challenge on study day 24, antigen challenge was with ovalbumin (1.5 mg/kg in 150 μl/kg saline). Animals were pretreated with mepyramine (10 mg/kg, intraperitoneal) 30 minutes before challenge to protect against histamine-induced anaphylaxis. On study day 24, guinea pigs were anesthetized to allow measurement of nasal resistance using a Buxco respiratory mechanics system and software. […] Nasal resistance was measured for 40 minutes after challenge.
Methods: To investigate the effects of the CpG oligodeoxynucleotide SEQ ID NO:7 against antigen induced increases in nasal resistance in the guinea pigs guinea pigs were sensitized with antigen, then antigen-challenged nasally. Nasal resistance was measured for 40 minutes after challenge.

BALB/c mice [5] = assay: Mouse model of allergic rhinitis (sneezing, nasal rubbing); type: in vivo; settings: intranasal, 10 minute period after antigen challenge, FIG. 3
Protocol: Mice (male BALB/c) were sensitized on study days 0 and 7 with antigen (ovalbumin, 100 μg, i.p.) with aluminum hydroxide adjuvant (Pierce Alum i.p.). Mice were antigen challenged daily by exposure to intranasally-administered antigen (1 mg in 10 μl saline). The first challenge was on study day 14. SEQ ID NO:7 was administered intranasally twice. The first dose was given 2 days before the first antigen challenge. The second dose was given 7 days later. Alternatively, budesonide (an anti-inflammatory, synthetic corticosteroid) was administered intranasally daily. The first dose was given 2 days before the first antigen challenge. On each day, the budesonide dose was administered intranasally 4 hours before intranasal antigen challenge. Endpoints were measured on study day 26 (i.e. 7 days after the second dose of SEQ ID NO: 7. Nasal tissues were taken for histopathological assessment of inflammation. Separate mice received a final antigen challenge and incidences of sneezing and nasal rubbing were counted for a 10 minute period after challenge.
Methods: BALB/c mice were used to study the effects of SEQ ID NO:7 on symptoms of allergic rhinitis. […] Separate mice received a final antigen challenge and incidences of sneezing and nasal rubbing were counted for a 10 minute period after challenge.

[6] = 100 μg/kg intranasal, both virus-infected and antigen-challenged

With “T*C_G*T*C_G*T*C_G*T*T*C_G*G*C*G*C_G*C*G*C*C*G (DNA dT*dCdG*dT*dCdG*dT*dCdG*dT*dT*dCdG*dG*dC*dG*dCdG*dC*dG*dC*dC*dG) [SEQ ID NO: 2, Semi-soft class C CpG ODN]” the “production of antigen (ovalbumin)-specific IgE” value (BALB/c mice [1]) was “suppressed”, the “production of antigen (ovalbumin)-specific IgG2a” value (BALB/c mice [1]) was “potentiated” and the “AUC-resistance (airway reactivity, area under the dose-response curve)” value (guinea pigs [2]) was “dose-dependent reduction”. The “induction of TLR9-associated cytokines IFNα, IFNγ, IP-0, IL-6, IL-10 and TNFα” value (mouse splenocytes) was “induced”, the “max SI (maximal stimulation index)” value (human TLR9) was 20 and the antigen-induced eosinophilia (BALB/c mice [3]; 100 μg/kg intranasal, antigen challenge alone, FIG. 20) was “significantly suppress”. The “exacerbated accumulations of neutrophils and mononuclear cells” value (BALB/c mice [3]; [6]) was “both suppressed”, the exacerbated airways inflammation (BALB/c mice [3]; [6]) was “significantly suppressed” and the virus-induced neutrophilia (BALB/c mice [3]; 100 μg/kg intranasal, virus infection alone, FIG. 20) was “did not suppress”. For the same substance, the “loss of body weight” value (BALB/c mice [3]; both virus-infected and antigen-challenged) was “significantly suppressed”.

For “T*C_G*T*C_G*T*T*T*T*G*A*C_G*T*T*T*T*G*T*C_G*T*T (DNA dT*dCdG*dT*dCdG*dT*dT*dT*dT*dG*dA*dCdG*dT*dT*dT*dT*dG*dT*dCdG*dT*dT) [SEQ ID NO: 7, Semi-soft class B CpG ODN included for comparison, reference compound]”, the “production of antigen (ovalbumin)-specific IgE” value (BALB/c mice [1]) was “suppressed”, the “production of antigen (ovalbumin)-specific IgG2a” value (BALB/c mice [1]) was “potentiated” and the “AUC-resistance (airway reactivity, area under the dose-response curve)” value (guinea pigs [2]) was “dose-dependent reduction”. The “antigen-induced increase in nasal resistance” value (guinea pigs [4]) was “significantly suppressed”, the “incidence of nasal rubbing” value (BALB/c mice [5]) was “suppressed” and the incidence of sneezing (BALB/c mice [5]) was “suppressed”.
